The record followed here is patent US10752588B2 (The Broad Institute, Inc., priority 2014, dated 2020).

Each structure is given as a SMILES string.

The target in experiment [1] is T1, human D2R/β-arrestin (Homo sapiens (Human), UniProt P14416). Description: β-Arrestin agonist assay (PathHunter). The following applies: CHO-K1 cell line expressing human D2R/β-arrestin. It is filed as cell-based. As for the experimental part: (§1) The assays can be performed using proper detection reagents either prepared using routine methods known in the art or commercially available (e.g., PathHunter® β-Arrestin Detecting Kit (DiscoveRX)). Cells are grown to the necessary confluence and then detached. The cells are then centrifuged, washed, resuspended, and seeded into a container (e.g., 384-well plate). The cells are incubated (e.g., at 37° C., 5% CO2) for the appropriate period of time (e.g., 24 hours), before various compounds (e.g., a compound of the invention or a control compound) are added to the cells. After incubation of the cells with the compounds, detection reagents (e.g., a buffer containing Emerald II: Galactor-Star as provided DiscoveRX) are added to the cells. The read-out (e.g., luminescence, or fluorescence) is detected using standard equipment.
T1 sequence (P14416 whole entry): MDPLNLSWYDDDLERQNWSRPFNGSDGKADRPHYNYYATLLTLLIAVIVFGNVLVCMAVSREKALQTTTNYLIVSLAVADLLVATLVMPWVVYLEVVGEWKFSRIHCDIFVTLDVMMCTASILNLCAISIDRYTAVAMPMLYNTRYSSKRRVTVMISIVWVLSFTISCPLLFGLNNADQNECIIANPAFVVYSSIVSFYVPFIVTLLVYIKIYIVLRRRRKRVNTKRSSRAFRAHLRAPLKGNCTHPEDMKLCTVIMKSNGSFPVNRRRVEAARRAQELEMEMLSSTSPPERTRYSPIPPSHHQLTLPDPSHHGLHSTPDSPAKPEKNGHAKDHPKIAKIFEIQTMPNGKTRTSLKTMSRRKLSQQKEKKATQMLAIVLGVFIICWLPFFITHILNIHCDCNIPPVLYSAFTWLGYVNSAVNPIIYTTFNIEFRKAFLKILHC
The detection reagent (9.6 μL, Buffer:Emerald II:Galactor-Star in a 19:5:1 ratio, i.e., 14.06 mL:3.7 mL:0.74 mL=18.5 mL) was then added to the agonist plates.

The target of experiment [2] is T1, human D2R/β-arrestin. Description: Gi/cAMP agonist assay (Lance Ultra cAMP, Forskolin). The format is cell-based. The following applies: CHO-K1 cell line expressing human D2R/β-arrestin. As for the experimental part: as §1, with “PE Lance Ultra cAMP kit (TRF0263)).” for “PathHunter® β-Arrestin Detecting Kit (DiscoveRX)).”, “Afterwards, cAMP inducing agents (e.g., Forskolin) are added to and incubated with” for “After incubation of”, “before” for “with the compounds,”, “cAMP antibody, such” for “buffer containing Emerald II: Galactor-Star”, “ULight-anti-cAMP solution)” for “provided DiscoveRX)”, “Read-out” for “The read-out”
Compounds were pin-transferred (100 nL) to the cells, and incubated for 10 min. at 37° C. […] Eu-cAMP tracer solution (100, PerkinElmer, […] in 17.64 ml kit buffer) and ULight-anti-cAMP solution (100, 120 μL antibody in 17.88 ml kit buffer) was then added to each well.

Experiment [3] addresses T1, human D2R/β-arrestin. Kind of experiment: cell-based. The following applies: β-arrestin Antagonist.
In experiment [4] the target is T1, human D2R/β-arrestin. Description: cell-based. The following applies: cAMP Antagonist.
The mark [5] stands for this setting: CHO-K1 cell line expressing human D2R/β-arrestin, quinpirole used as agonist.

As usually defined, the EC50 is the midpoint of the concentration-response curve. By IC50 is commonly meant the concentration needed to halve the response being measured. Read a high IC50 as a need for much substance. Regarding `CC(C1CCN(CCOc2ccccc2)CC1)N(C)C(c1ccc(Cl)cc1)c1ccccn1` (single isomer, unassigned) [Compound 97c, N-((4-chlorophenyl)(pyridin-2-yl)methyl)-N-methyl-1-(1-(2-phenoxyethyl)piperidin-4-yl)ethan-1-amine], the EC50 at human D2R/β-arrestin [1] and on human D2R/β-arrestin [2] was greater than 30000 nM in each case. Also, the IC50 at human D2R/β-arrestin [3] (setting [5]) and at human D2R/β-arrestin [4] (setting [5]) was less than 100 nM each time.

Turning to `CC(C1CCN(CCOc2ccccc2)CC1)N(C)C(c1ccc(Cl)cc1)c1ccccn1` (single isomer, unassigned) [Compound 97d, N-((4-chlorophenyl)(pyridin-2-yl)methyl)-N-methyl-1-(1-(2-phenoxyethyl)piperidin-4-yl)ethan-1-amine], the EC50 on human D2R/β-arrestin [1] and on human D2R/β-arrestin [2] was greater than 30000 nM each time. In addition, the IC50 at human D2R/β-arrestin [3] (setting [5]) and at human D2R/β-arrestin [4] (setting [5]) was 100 to 1000 nM throughout.

As for `CC1(CNC(c2ccc(F)cc2)c2ccccn2)CCN(CCOc2ccccc2C(F)(F)F)CC1` (single isomer, unassigned) [Compound 101a, 1-(4-fluorophenyl)-N-((4-methyl-1-(2-(2-(trifluoromethyl)phenoxy)ethyl)piperidin-4-yl)methyl)-1-(pyridin-2-yl)methanamine], the EC50 at human D2R/β-arrestin [1] and on human D2R/β-arrestin [2] was greater than 30000 nM throughout. For the same compound, the IC50 on human D2R/β-arrestin [3] (setting [5]) and at human D2R/β-arrestin [4] (setting [5]) was 100 to 1000 nM in each case.

Regarding `c1ccc(OCCN2CCC(CNC(c3ccc4c(c3)OCO4)c3ccccn3)CC2)cc1` (single isomer, unassigned) [Compound 102a, 1-(benzo[d][1,3]dioxol-5-yl)-N-((1-(2-phenoxyethyl)piperidin-4-yl)methyl)-1-(pyridin-2-yl)methanamine], the EC50 at human D2R/β-arrestin [1] and at human D2R/β-arrestin [2] was greater than 30000 nM each time. In addition, the IC50 on human D2R/β-arrestin [3] (setting [5]) and at human D2R/β-arrestin [4] (setting [5]) was 1000 to 10000 nM throughout.

Regarding `CC(C)N(CC1CCN(CCOc2ccccc2)CC1)C(c1ccc(Cl)cc1)c1ccccn1` (single isomer, unassigned) [Compound 103a, N-((4-chlorophenyl)(pyridin-2-yl)methyl)-N-((1-(2-phenoxyethyl)piperidin-4-yl)methyl)propan-2-amine], the figures for the EC50 at human D2R/β-arrestin [1] and on human D2R/β-arrestin [2] were greater than 30000 nM and 100 to 1000 nM, respectively. Besides, the results for the IC50 against human D2R/β-arrestin [3] and on human D2R/β-arrestin [4] were 100 to 1000 nM and less than 100 nM, respectively.

For `Clc1ccc(C(NCC2CCN(CCOc3ccccc3)CC2)c2ccccn2)cc1` (single isomer, unassigned) [Compound 114b, 1-(4-chlorophenyl)-N-((1-(2-phenoxyethyl)piperidin-4-yl)methyl)-1-(pyridin-2-yl)methanamine], the EC50 is greater than 30000 nM at human D2R/β-arrestin [1] and 100 to 1000 nM at human D2R/β-arrestin [2]. Besides, the results for the IC50 at human D2R/β-arrestin [3] (setting [5]) and on human D2R/β-arrestin [4] (setting [5]) were 100 to 1000 nM and greater than 30000 nM, respectively.

On to `O=C(NC(c1ccc(Cl)cc1)c1ccccn1)C1CCN(CCOc2ccc(F)cc2F)CC1` (single isomer, unassigned) [Compound 115a, N-((4-chlorophenyl)(pyridin-2-yl)methyl)-1-(2-(2,4-difluorophenoxy)ethyl)piperidine-4-carboxamide], for which the EC50 is greater than 30000 nM on human D2R/β-arrestin [1] and 100 to 1000 nM at human D2R/β-arrestin [2]. For the same compound, the IC50 at human D2R/β-arrestin [3] (setting [5]) is 1000 to 10000 nM; on human D2R/β-arrestin [4] (setting [5]), greater than 30000 nM.

On to `O=C(NC(c1ccc(Cl)cc1)c1ccccn1)C1CCN(CCOc2ccc(F)cc2F)CC1` (single isomer, unassigned) [Compound 115b, N-((4-chlorophenyl)(pyridin-2-yl)methyl)-1-(2-(2,4-difluorophenoxy)ethyl)piperidine-4-carboxamide], for which the EC50 at human D2R/β-arrestin [1] and at human D2R/β-arrestin [2] was greater than 30000 nM throughout. Further, the IC50 at human D2R/β-arrestin [3] (setting [5]) and on human D2R/β-arrestin [4] (setting [5]) was 100 to 1000 nM each time.

With `FC(F)(F)CN(CC1CCN(CCOc2ccccc2)CC1)C(c1ccc(Cl)cc1)c1ccccn1` (single isomer, unassigned) [Compound 125a, N-((4-chlorophenyl)(pyridin-2-yl)methyl)-2,2,2-trifluoro-N-((1-(2-phenoxyethyl)piperidin-4-yl)methyl)ethanamine], the figures for the EC50 on human D2R/β-arrestin [1] and on human D2R/β-arrestin [2] were greater than 30000 nM and 100 to 1000 nM, respectively. Besides, the IC50 was 1000 to 10000 nM on human D2R/β-arrestin [3] (setting [5]) and greater than 30000 nM on human D2R/β-arrestin [4] (setting [5]).

Regarding `FC(F)(F)CN(CC1CCN(CCOc2ccccc2)CC1)C(c1ccc(Cl)cc1)c1ccccn1` (single isomer, unassigned) [Compound 125b, N-((4-chlorophenyl)(pyridin-2-yl)methyl)-2,2,2-trifluoro-N-((1-(2-phenoxyethyl)piperidin-4-yl)methyl)ethanamine], the EC50 at human D2R/β-arrestin [1] and at human D2R/β-arrestin [2] was greater than 30000 nM in each case. The IC50 on human D2R/β-arrestin [3] (setting [5]) lay in the range of 100 to 1000 nM; on human D2R/β-arrestin [4] (setting [5]), 1000 to 10000 nM.

For the compound `O=C(NC(c1ccc2c(c1)OC(F)(F)O2)c1ccccn1)C1CCN(CCOc2ccc(F)cc2F)CC1` (single isomer, unassigned) [Compound 130a, N-((2,2-difluorobenzo[d][1,3]dioxol-5-yl)(pyridin-2-yl)methyl)-1-(2-(2,4-difluorophenoxy)ethyl)piperidine-4-carboxamide], the EC50 at human D2R/β-arrestin [1] and at human D2R/β-arrestin [2] was greater than 30000 nM in each case. Besides, the IC50 on human D2R/β-arrestin [3] (setting [5]) was in the range of 1000 to 10000 nM; at human D2R/β-arrestin [4] (setting [5]) it was 100 to 1000 nM.

Regarding `CC(C)N(CC1CCN(CCOc2ccccc2F)CC1)C(c1ccc(Cl)cc1)c1ccccn1` (single isomer, unassigned) [Compound 133a, N-((4-chlorophenyl)(pyridin-2-yl)methyl)-N-((1-(2-(2-fluorophenoxy)ethyl)piperidin-4-yl)methyl)propan-2-amine], the EC50 on human D2R/β-arrestin [1] and at human D2R/β-arrestin [2] was greater than 30000 nM throughout. Besides, the IC50 on human D2R/β-arrestin [3] (setting [5]) and at human D2R/β-arrestin [4] (setting [5]) was less than 100 nM throughout.

Regarding `CC(C)N(CC1CCN(CCOc2ccccc2F)CC1)C(c1ccc(Cl)cc1)c1ccccn1` (single isomer, unassigned) [Compound 133b, N-((4-chlorophenyl)(pyridin-2-yl)methyl)-N-((1-(2-(2-fluorophenoxy)ethyl)piperidin-4-yl)methyl)propan-2-amine], the EC50 at human D2R/β-arrestin [1] and at human D2R/β-arrestin [2] was less than 100 nM in each case. Besides, the IC50 was 100 to 1000 nM at human D2R/β-arrestin [3] (setting [5]) and greater than 30000 nM at human D2R/β-arrestin [4] (setting [5]).

For the compound `Fc1ccccc1OCCN1CCC(CN(CC(F)(F)F)C(c2ccc(Cl)cc2)c2ccccn2)CC1` (single isomer, unassigned) [Compound 136a, N-((4-chlorophenyl)(pyridin-2-yl)methyl)-2,2,2-trifluoro-N-((1-(2-(2-fluorophenoxy)ethyl)piperidin-4-yl)methyl)ethan-1-amine], the half-maximal effective concentration (EC50) on human D2R/β-arrestin [1] is 100 to 1000 nM; on human D2R/β-arrestin [2], 1000 to 10000 nM. Also, the IC50 on human D2R/β-arrestin [3] (setting [5]) is 100 to 1000 nM; at human D2R/β-arrestin [4] (setting [5]), greater than 30000 nM.

Consider `Fc1ccccc1OCCN1CCC(CN(CC(F)(F)F)C(c2ccc(Cl)cc2)c2ccccn2)CC1` (single isomer, unassigned) [Compound 136b, N-((4-chlorophenyl)(pyridin-2-yl)methyl)-2,2,2-trifluoro-N-((1-(2-(2-fluorophenoxy)ethyl)piperidin-4-yl)methyl)ethan-1-amine], for which the EC50 at human D2R/β-arrestin [1] and on human D2R/β-arrestin [2] was greater than 30000 nM each time. For the same compound, the IC50 at human D2R/β-arrestin [3] (setting [5]) and on human D2R/β-arrestin [4] (setting [5]) was less than 100 nM in each case.

As for `CN(CC1CCN(CCOc2ccccc2F)CC1)C(c1ccc2c(c1)OCO2)c1ccccn1` (single isomer, unassigned) [Compound 138a, 1-(benzo[d][1,3]dioxol-5-yl)-N-((1-(2-(2-fluorophenoxy)ethyl)piperidin-4-yl)methyl)-N-methyl-1-(pyridin-2-yl)methanamine], the EC50 was 100 to 1000 nM at human D2R/β-arrestin [1] and less than 100 nM on human D2R/β-arrestin [2]. The IC50 at human D2R/β-arrestin [3] (setting [5]) is 100 to 1000 nM; on human D2R/β-arrestin [4] (setting [5]) it was greater than 30000 nM.

Turning to `Fc1ccccc1OCCN1CCC(CNC(c2ccc3c(c2)OCO3)c2ccccn2)CC1` (single isomer, unassigned) [Compound 139a, 1-(benzo[d][1,3]dioxol-5-yl)-N-((1-(2-(2-fluorophenoxy)ethyl)piperidin-4-yl)methyl)-1-(pyridin-2-yl)methanamine], the values for the EC50 on human D2R/β-arrestin [1] and at human D2R/β-arrestin [2] were greater than 30000 nM and less than 100 nM, respectively. Also, the half-maximal inhibitory concentration (IC50) on human D2R/β-arrestin [3] (setting [5]) and on human D2R/β-arrestin [4] (setting [5]) was 100 to 1000 nM each time.

With `COc1cccc(C(NC(=O)C2CCN(CCOc3ccc(F)cc3F)CC2)c2ccccn2)c1` (single isomer, unassigned) [Compound 145a, 1-(2-(2,4-difluorophenoxy)ethyl)-N-((3-methoxyphenyl)(pyridin-2-yl)methyl)piperidine-4-carboxamide], the EC50 at human D2R/β-arrestin [1] and at human D2R/β-arrestin [2] was greater than 30000 nM each time. Moreover, the IC50 at human D2R/β-arrestin [3] (setting [5]) fell in the range of 10000 to 30000 nM; at human D2R/β-arrestin [4] (setting [5]), 1000 to 10000 nM.
